Results from US12459921B2, “Isoindoline compound, preparation method, pharmaceutical composition and use thereof” (SHANGHAI INSTITUTE OF MATERIA MEDICA, CHINESE ACADEMY OF …, priority 2018, dated 2025).

These compounds were tested on MM.1S cells (assay: Inhibitory effect on the proliferation of MM.1S, MTS cell viability test). Details: Homo sapiens, MM1.S, 168 h, multiple myeloma MM.1S cells, 7 days incubation, read-out: Tumor cell inhibitory activity.
Format: cell-based
Experimental: Method of tumor cell proliferation inhibition test: the inventors tested all the example compounds on hematologic tumor cells, multiple myeloma MMTs cell line and acute leukemia cell MV-4-11 cell line of some examples. The activity test method and results are as follows.
1. The Compound's Inhibitory Effect on the Proliferation of MM.1S, MTS Cell Viability Test:
MM.1S cells were cultured and collected with 1640 plus 10% fetal bovine serum. The cell concentration was diluted according to 7 days, and 180 ul cell suspension was added to each well of the 96-well cell plate to 20,000 cells. 20 ul of DMSO with a final concentration of 0.2% was added to the control wells. The compound was 5-fold diluted—from the 10 mM stock solution, and 20 ul was also added to each compound cell well (the final concentration of DMSO was 0.2%). The cells were placed in a 37° C., 5% CO2 incubator to incubate for 7 days. After the reaction solution was prepared according to the MTS kit (Promega, G5430), 20 μL was added to each well and incubated in a 37° C., 5% CO2 incubator for 3-4 h. Absorbance value at 490 nm was read with a microtiter plate, and 690 nm absorbance value was used as the background value. OD490-OD690 was used as the final initial data. The formula for calculating the inhibition rate of the compound is: inhibition rate=(ODDMSO-ODcompound)/(ODDMSO-Oblank)×100%. The compound's proliferation inhibition IC50 was fitted by Graph Pad Prism 5.0. The experiment was repeated three times, and the average and standard deviation was calculated according to the three parallel experiments.
Cell viability test results: **** represents cell viability IC50>20 μM, […] represents cell viability 1 μM<IC50<20 μM, ** represents cell viability 100 nM<IC50<1 μM, * represents cell viability IC50<100 nM.

First: Cc1ccc2c(c1)C1(CCN(CCCOc3cccc4c3CN(C3CCC(=O)NC3=O)C4=O)CC1)OC2 (stereo not shown) [Example 140, 3-(4-(3-(6-methyl-3H-spiro[isobenzofuran-1,4′-piperidine]-1′-)propoxy)-1-oxoisoindoline-2-)piperidine-2,6-dione]
Second: O=C1CCC(N2Cc3c(OCCCN4CCC5(CC4)OCc4ccc(F)cc45)cccc3C2=O)C(=O)N1 (stereo not shown) [Example 142, 3-(4-(3-(6-fluoro-3H-spiro[isobenzofuran-1,4′-piperidine]-1′-)propoxy)-1-oxoisoindoline-2-)piperidine-2,6-dione]
The IC50 of the first is lower: under 100 nM for the first, 100 to 1000 nM for the second.

`O=C1CCC(N2Cc3c(OCCCCN4CCC5(CC4)OCc4ccc(F)cc45)cccc3C2=O)C(=O)N1` (stereo not shown) [Example 128, 3-(4-(4-(6-fluoro-3H-spiro[isobenzofuran-1,4′-piperidine]-1′-)butoxy)-1-oxoisoindoline-2-)piperidine-2,6-dione] and `O=C1CCC(N2Cc3c(OCCCCN4CCC5(CC4)OCc4ccc(Cl)cc45)cccc3C2=O)C(=O)N1` (stereo not shown) [Example 124, 3-(4-(4-(6-chloro-3H-spiro[isobenzofuran-1,4′-piperidine]-1′-)butoxy)-1-oxoisoindoline-2-)piperidine-2,6-dione] cannot be ordered by IC50: under 100 nM for the first, under 100 nM for the second.

`N#CC1(c2ccccc2Cl)CCN(CCCCCc2cccc3c2CN(C2CCC(=O)NC2=O)C3=O)CC1` (stereo not shown) [Example 92, 4-(2-chlorophenyl)-1-(5-(2-(2,6-oxopiperidine-3-)-1-oxoisoindoline-4-)pentyl)piperidine-4-carbonitrile] and `N#CC1(c2ccccc2Cl)CCN(CCCCCCc2cccc3c2CN(C2CCC(=O)NC2=O)C3=O)CC1` (stereo not shown) [Example 98, 4-(2-chlorophenyl)-1-(6-(2-(2,6-dioxopiperidine-3-)-1-oxoisoindoline-4-)hexyl)piperidine-4-carbonitrile] cannot be ordered by IC50: under 100 nM for the first, under 100 nM for the second.

`O=C1CCC(N2Cc3c(CCCCCN4CCC5(CC4)C(=O)Nc4ccc(F)cc45)cccc3C2=O)C(=O)N1` (stereo not shown) [Example 278] and `O=C1CCC(N2Cc3c(CCCCCN4CCC5(CC4)C(=O)Nc4cccc(Cl)c45)cccc3C2=O)C(=O)N1` (stereo not shown) [Example 276, 3-(4-(5-(4-chloro-2-oxospiro[dihydroindole-3,4-piperidin]-1-yl)pentyl)-1-oxoisoindoline-2-yl)piperidine-2,6-dione] fall in the same range of IC50: 100 to 1000 nM for the first, 100 to 1000 nM for the second.

First: O=C1CCC(N2Cc3c(CCCCCN4CCCc5ccc(Cl)cc54)cccc3C2=O)C(=O)N1 (stereo not shown) [Example 109, 3-(4-(5-(7-chloro-3,4-dihydroquinoline-1(2H))pentyl)-1-oxoisoindoline-2-)piperidine-2,6-dione]
Second: O=C1CCC(N2Cc3c(CCCCCN4CCC5(CC4)OCc4cc(Cl)ccc45)cccc3C2=O)C(=O)N1 (stereo not shown) [Example 274, 3-(4-(5-(5-chloro-3H-spiro[isobenzofuran-1,4′-piperidin]-1-yl)pentyl)-1-oxoisoindoline-2-yl)piperidine-2,6-dione]
The IC50 of the first is higher: 1000 to 20000 nM for the first, 100 to 1000 nM for the second.

`Cc1cc(OCCCCOc2cc(F)cc3c2CN(C2CCC(=O)NC2=O)C3=O)c2ccccc2n1` (stereo not shown) [Example 212, 3-(6-fluoro-4-(4-((2-methylquinoline-4-)oxy)butoxy)-1-oxoisoindoline-2-)piperidine-2,6-dione] and `O=C1CCC(N2Cc3c(CCCCOc4ccnc5ccccc45)cccc3C2=O)C(=O)N1` (stereo not shown) [Example 15, 3-(1-oxo-4-(4-(quinoline-4-oxy)butyl)isoindoline-2-)piperidine-2,6-dione] cannot be ordered by IC50: under 100 nM for the first, under 100 nM for the second.

First: O=C1CCC(N2Cc3c(CCCCN4CCN(c5ccc([N+](=O)[O-])cc5)CC4)cccc3C2=O)C(=O)N1 (stereo not shown) [Example 42, 3-(4-(4-(4-(4-nitrophenyl)piperazine-1-)butyl)-1-oxoisoindoline-2-)piperidine-2,6-dione]
Second: O=C1CCC(N2Cc3c(CCCCCN4CCN(c5nsc6ccccc56)CC4)cccc3C2=O)C(=O)N1 (stereo not shown) [Example 232, 3-(4-(5-(4-(benzisothiazol-3-yl)piperazin-1-yl)pentyl)-1-oxoisoindoline-2-yl) piperidine-2,6-dione]
The IC50 of the first is lower: under 100 nM for the first, 1000 to 20000 nM for the second. The first is the more potent here.

First: O=C1CCC(N2Cc3c(OCCCC(=O)N4CCN(c5ccccc5)CC4)cccc3C2=O)C(=O)N1 (stereo not shown) [Example 28, 3-(1-oxo-4-(4-oxo-4-(4-phenylpiperazine-1-)butoxy)isoindoline-2-)piperidine-2,6-dione]
Second: O=C1CCC(N2Cc3c(OCCCCN4CCN(c5cccc6ccsc56)CC4)cccc3C2=O)C(=O)N1 (stereo not shown) [Example 239, 3-(4-(4-(4-(benzothiophene-7-yl)piperazine-1-yl)butoxy)-1-oxoisoindoline-2-yl)piperidine-2,6-dione]
The IC50 of the first is lower: under 100 nM for the first, 1000 to 20000 nM for the second. The first is the more potent here.

`CC(=O)N[C@@H](CCCc1cccc2c1CN(C1CCC(=O)NC1=O)C2=O)C(=O)N1CCC2(CC1)OCc1ccccc12` (stereo partly drawn) [Example 207, N-((2S)-5-(2-(2,6-dioxopiperidine-3-)-1-oxoisoindoline-4-)-1-oxo-1-(3H-spiro[isobenzofuran-1,4′-piperidine]-1′-)pentyl-2-)acetamide] and `CC(=O)N[C@@H](CCCc1cccc2c1CN(C1CCC(=O)NC1=O)C2=O)C(=O)N[C@H]1CCc2ccccc21` (stereo partly shown) [Example 175] fall in the same range of IC50: 100 to 1000 nM for the first, 100 to 1000 nM for the second.

`N#CC1(c2ccccc2Cl)CCN(CCCCc2cccc3c2CN(C2CCC(=O)NC2=O)C3=O)CC1` (stereo not shown) [Example 91, 4-(2-chlorophenyl)-1-(4-(2-(2,6-dioxopiperidine-3-)-1-oxoisoindoline-4-)butyl)piperidine-4-carbonitrile] and `N#CC1(c2ccc(Cl)cc2Cl)CCN(CCCCc2cccc3c2CN(C2CCC(=O)NC2=O)C3=O)CC1` (stereo not shown) [Example 101, 4-(2,4-chlorophenyl)-1-(4-(2-(2,6-dioxopiperidine-3-)-1-oxoisoindoline-4-)butyl)piperidine-4-carbonitrile] cannot be ordered by IC50: under 100 nM for the first, under 100 nM for the second.

First: N#CC1(c2ccc(F)cc2)CCN(CCCOc2cccc3c2CN(C2CCC(=O)NC2=O)C3=O)CC1 (stereo not shown) [Example 65, 1-(3-((2-(2,6-dioxopiperidine-3-)-1-oxoisoindoline-4-)oxy)propyl)-4-(4-fluorophenyl)piperidine-4-carbonitrile]
Second: N#CC1(c2ccccc2Cl)CCN(CCCOc2cccc3c2CN(C2CCC(=O)NC2=O)C3=O)CC1 (stereo not shown) [Example 55, 4-(2-chlorophenyl)-1-(3-((2-(2,6-dioxopiperidine-3-)-1-oxoisoindoline-4-)oxy)propyl)piperidine-4-carbonitrile]
The IC50 of the first is higher: 100 to 1000 nM for the first, under 100 nM for the second. The second is the more potent here.

`N#Cc1ccc(C2(C#N)CCN(CCCCCc3cccc4c3CN(C3CCC(=O)NC3=O)C4=O)CC2)cc1` (stereo not shown) [Example 268, 4-(4-cyanophenyl)-1-(5-(2-(2,6-dioxopiperidin-3-yl)-1-oxoisoindoline-4-yl)pentyl)piperidine-4-carbonitrile] and `COc1ccc(C2(C#N)CCN(CCCCCc3cccc4c3CN(C3CCC(=O)NC3=O)C4=O)CC2)c(Cl)c1` (stereo not shown) [Example 267, 4-(2-chloro-4-methoxyphenyl)-1-(5-(2-(2,6-dioxopiperidin-3-yl)-1-oxoisoindoline-4-yl)pentyl)piperidine-4-carbonitrile] fall in the same range of IC50: 100 to 1000 nM for the first, 100 to 1000 nM for the second.

First: N#CC1(c2cccc(Cl)c2)CCN(CCCCCOc2cccc3c2CN(C2CCC(=O)NC2=O)C3=O)CC1 (stereo not shown) [Example 79, 4-(3-chlorophenyl)-1-(5-((2-(2,6-dioxopiperidine-3-)-1-oxoisoindoline-4-)oxy)pentyl)piperidine-4-carbonitrile]
Second: N#CC1(c2ccccc2Cl)CCN(CCOc2cccc3c2CN(C2CCC(=O)NC2=O)C3=O)CC1 (stereo not shown) [Example 64, 4-(2-chlorophenyl)-1-(2-((2-(2,6-dioxopiperidine-3-)-1-oxoisoindoline-4-)oxy)ethyl) piperidine-4-carbonitrile]
The IC50 of the first is lower: under 100 nM for the first, 100 to 1000 nM for the second. The first is the more potent here.

`N#CC1(c2cc(Cl)ccc2Cl)CCN(CCCCc2cccc3c2CN(C2CCC(=O)NC2=O)C3=O)CC1` (stereo not shown) [Example 269, 4-(2,5-dichlorophenyl)-1-(4-(2-(2,6-dioxopiperidin-3-yl)-1-oxoisoindoline-4-yl)butyl)piperidine-4-carbonitrile] and `COc1ccc(OC)c(C2(C#N)CCN(CCCCc3cccc4c3CN(C3CCC(=O)NC3=O)C4=O)CC2)c1` (stereo not shown) [Example 246, 4-(2,5-dimethoxyphenyl)-1-(4-(2-(2,6-dioxopiperidine-3-yl)-1-oxoisoindoline-4-yl)butyl)piperidine-4-carbonitrile] fall in the same range of IC50: 100 to 1000 nM for the first, 100 to 1000 nM for the second.

First: CC(=O)N[C@@H](CCCc1cccc2c1CN(C1CCC(=O)NC1=O)C2=O)C(=O)N[C@@H](C)c1ccccc1 (stereo partly drawn) [Example 171, (2S)-2-acetylamino-5-(2-(2,6-dioxopiperidine-3-)-1-oxoisoindoline-4-)-N—((S)-1-phenethyl)pentanamide]
Second: CC(=O)N[C@@H](CCCc1cccc2c1CN(C1CCC(=O)NC1=O)C2=O)c1nc2cccc(Br)c2[nH]1 (stereo partly drawn) [Example 197, N-((1S)-1-(7-bromo-1H-benzo[d]imidazole-2-)-4-(2-(2,6-dioxopiperidine-3-)-1-oxoisoindoline-4-)butyl)acetamide]
The IC50 of the first is higher: 1000 to 20000 nM for the first, 100 to 1000 nM for the second.

Work on `O=C1CCC(N2Cc3c(OCCCCCN4CCC5(CC4)OCc4ccc(Cl)cc45)cccc3C2=O)C(=O)N1` (stereo not shown) [Example 132, 3-(4-((5-(6-chloro-3H-spiro[isobenzofuran-1,4-piperidine]-1-)pentyl)oxy)-1-oxoisoindoline-2-)piperidine-2,6-dione] yielded an IC50 of under 100 nM.
